Each structure is given as a SMILES string.

The target in the experiment is T1, hM5 (Homo sapiens, UniProt P08912).
T1 construct: expressed in transfected cells
T1 sequence (P08912 1-532): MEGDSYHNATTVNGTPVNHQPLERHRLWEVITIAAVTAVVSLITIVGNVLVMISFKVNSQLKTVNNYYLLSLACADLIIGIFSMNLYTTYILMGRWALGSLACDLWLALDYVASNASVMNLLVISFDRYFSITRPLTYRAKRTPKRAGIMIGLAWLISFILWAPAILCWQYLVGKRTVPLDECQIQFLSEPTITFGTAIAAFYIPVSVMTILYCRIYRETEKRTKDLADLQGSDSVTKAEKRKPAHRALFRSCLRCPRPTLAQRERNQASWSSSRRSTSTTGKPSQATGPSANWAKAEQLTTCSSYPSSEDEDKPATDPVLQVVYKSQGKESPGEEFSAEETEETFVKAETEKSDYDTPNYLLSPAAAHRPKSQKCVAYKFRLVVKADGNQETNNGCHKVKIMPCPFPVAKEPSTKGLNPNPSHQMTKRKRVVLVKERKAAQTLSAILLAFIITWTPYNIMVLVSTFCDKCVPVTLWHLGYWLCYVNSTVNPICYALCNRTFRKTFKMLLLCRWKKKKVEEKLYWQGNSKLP
Description: Calcium mobilization concentration-response (IC50 vs EC80 acetylcholine), CHO hM5. It counts as cell-based. Particulars: CELL LINE hM5; vs EC80 acetylcholine; read-out: IC50. Put shortly: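 IC50 values derive from percent maximal acetylcholine response after an EC80 ACh addition, measured as kinetic calcium fluorescence (static ratio, max−min). Test compounds were added 140 s before agonist. Cells: stable hM5-CHO in HEPES-buffered HBSS with 2.5 mM probenecid, pH 7.4; ≥3 independent triplicate determinations.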

As to `[2H]C([2H])([2H])Oc1c(S(=O)(=O)N2CCC(c3cn4ncnc4cc3C(F)(F)F)CC2)cnn1C` [Compound 615, 6-(1-((5-(methoxy-d3)-1-methyl-1H-pyrazol-4-yl)sulfonyl)piperidin-4-yl)-7-(trifluoromethyl)-[1,2,4]triazoto[1,5-a]pyridine], the IC50 came to 114 nM.
As to `[2H]C([2H])([2H])Oc1c(S(=O)(=O)N2CCC(c3cn4ncnc4cc3F)CC2)cnn1C` [Compound 616, 7-fluoro-6-(1-((5-(methoxy-d3)-1-methyl-1H-pyrazol-4-yl)sulfonyl)piperidin-4-yl)-[1,2,4]triazolo[1,5-a]pyridine], the IC50 came to 655 nM.
In the case of `[2H]C([2H])([2H])Oc1c(S(=O)(=O)N2CCC(c3nn4ncnc4cc3C)CC2)cnn1C` [Compound 617, 6-(1-((5-(methoxy-d3)-1-methyl-1H-pyrazol-4-yl)sulfonyl)piperidin-4-yl)-7-methyl-[1,2,4]triazolo[1,5-b]pyridazine], the IC50 was found to be 1980 nM.
In the case of `[2H]C1([2H])CC(c2cn3ncnc3cc2Cl)CC([2H])([2H])N1S(=O)(=O)c1cnn(C)c1CC#N` [Compound 621, 2-(4-((4-(7-chloro-[1,2,4]triazolo[1,5-a]pyridin-6-yl)piperidin-1-yl-2,2,6,6-d4)sulfonyl)-1-methyl-1H-pyrazol-5-yl)acetonitrile], the half-inhibitory concentration (IC50) came out at 43 nM.
Take `Cc1cc2ncnn2cc1C1CCN(S(=O)(=O)c2cnn(C)c2N2CCOCC2)CC1` [Compound 622, 4-(1-Methyl-4-((4-(7-methyl-[1,2,4]triazolo[1,5-a]pyridin-6-yl)piperidin-1-yl)sulfonyl)-1H-pyrazol-5-yl)morpholine]: the IC50 stood at 1970 nM.
The same measure for `Cc1ncc(S(=O)(=O)N2CCC(c3cn4ncnc4cc3CF)CC2)o1` [Compound 623, 5-((4-(7-(fluoromethyl)-[1,2,4]triazolo[1,5-a]pyridin-6-yl)piperidin-1-yl)sulfonyl)-2-methyloxazole]: 246 nM.

By IC50 is commonly meant the concentration needed to halve the response being measured.

Source of the values: patent publication US20230183237A1, “COMPETITIVE AND NONCOMPETITIVE INHIBITORS OF THE MUSCARINIC ACETYLCHOLINE RECEPTOR M5” (Vanderbilt University, priority 2020, published 2023).
